BindingDB's records for PubMed 26907156 (n/a, 2016)
pIC50: −log10 of the molar value.

Molecular target: CDK2/Cyclin E
Assay: Inhibition of CDK2/Cyclin E (unknown origin) using histone as substrate incubated for 30 mins in presence of gamma[33P]ATP by digital imaging analysis

Compound | pIC50
CC(C)n1cnc2c(NCc3cc(Cl)ccc3O)nc(NCCC(C)(C)O)nc21 | 7.70
CCC(CO)Nc1nc(NCc2cc(C)ccc2O)c2ncn(C(C)C)c2n1 (stereo not drawn) | 7.70
COc1cccc(CNc2nc(NC3CCCCC3N)nc3c2ncn3C(C)C)c1O (stereo not drawn) | 7.70
